Assay results reported in patent US11571446B2, “Gut microbiota and treatment of cancer” (Sanford Burnham Prebys Medical Discovery Institute, priority 2016, dated 2023).
Entries after “also recorded” stand apart in the source; their conditions may differ.

Key:
tumor growth [1] = assay: Tumor growth in Rnf5−/− mice treated with chemical chaperone; format: in vivo, mouse; details: treatment to alleviate ER stress
From the text: To understand the mechanism by which altered function of Rnf5^−/− mice might influence the anti-tumor immune response, changes in the intestinal epithelial cells (IECs) were examined, which cells play critical roles in both innate and adaptive immunity.

tumor growth [2] = assay: Fecal microbiota analysis of Rnf5−/− and WT tumor bearing mice; format: in vivo, mouse; details: Rnf5−/− vs WT microbiota
Experimental: The fecal microbiota of Rnf5^−/− and WT mice were analyzed. […] Of those, increased relative abundance of several bacterial taxa (including Bacteroides spp., B. acidifaciens, B. chinchilla, B. xylanisolvens, Parabacteroides merdae, Porphyromonas canis, Rickenella microfusus) and decreased abundance of others (including unclassified Bifidobacterium spp., B. choerinum, Odoribacter denticanis, Parabacteroides goldsteinii, unclassified Olivibacter, Parapedobacter koreensis) typified the microbiome of Rnf5^−/− mice bearing tumors, compared with the WT genotype.
The fecal microbiota of Rnf5−/− and WT mice were further analyzed. Marked differences in the microbial profiles were observed, highlighting differences in community structure depicted in principle component analysis that distinctly segregated Rnf5^−/− from WT microbiota. Analysis of microbiota allowed the identification of 42 phylotypes that distinguished Rnf5^−/− and WT microbiota in tumor bearing mice (FIG. 7). These phylotypes are dominated by a few taxonomic groups, the largest of which fall into the Clostridium cluster (37%). All but four of these may be assigned to Clostrium cluster IV or XIVa, known to be capable of producing butyrate that may influence Foxp3^+ Treg cells expansion. […]

SW1 cells = assay: Growth of SW1 melanoma in TLR4 mutant C3H/HeJ mice given mucin or inulin; format: in vivo, mouse
From the text: (§1) FIG. 6A depicts growth of SW1 TLR4-mutant tumor cells in C3H/HeJ TLR4 mutant mice provided with control diet, alone or with supplemented mucin or inulin starting 14 days prior to tumor inoculation (n=10). FIG. 6B depicts growth of MC-38 tumors in C57BL/6 mice (n=10) that received, starting 14 days prior to tumor inoculation, control diet, alone or with supplemented mucin or inulin. FIG. 6C depicts tumor volume in C57BL/6 mice (n=10 per group) injected (s.c.) with a melanoma cell line (N-Ras mutant; 1×10^6 cells). The mice were provided control or inulin or mucin supplemented diet. When tumors reached a volume of […], mice were treated with MEKi (PD325901) administered by gavage (10 mg/kg, daily), alone or in combination with inulin or mucin, as indicated. Tumor volume was assessed every 4 days.
To determine whether TLR4, the receptor for bacterial lipopolysaccharides, might be involved in the mucin-induced anti-tumor immune phenotype, the growth of mouse melanoma SW1 cells was examined in Tlr4^−/− C3H/HeJ mice.

[3] = system: tumor-infiltrating immune cells; assay: Tumor-infiltrating immune cells and immune gene transcription in mucin- or inulin-fed mice; format: in vivo, mouse
From the text: To test this directly it was investigated whether administration of mucin to WT mice could phenocopy Rnf5^−/− mice, in terms of tumor growth, immune response and gut microbiota composition. […] This prompted us to use machine learning to identify phylotypes that best distinguished WT (non-attenuated tumor growth) from Rnf5^−/− and WT mice treated with mucin or inulin (attenuated tumor growth). […] The immune status of mucin and inulin-fed WT mice also shifted to resemble that of Rnf5′ mice.

MC-38 cells = assay: Growth of MC-38 colon cancer tumors in C57BL/6 mice given mucin or inulin; format: in vivo, mouse
From the text: as §1
Next, it was determined whether mucin or inulin are also able to impact growth of colon cancer cells, representative of a different tumor type. Growth of MC-38 cells injected to WT mice was attenuated by inulin but not mucin (FIG. 6B). […] Corresponding increase in CD4, CD8, CD45 and DC, including pDC and mDC and MHC-I expression on DC, was identified in tumors subjected to the MEKi+inulin treatment.

human fecal samples = assay: Anaerobic cultivation of fecal samples with a sole carbohydrate source; format: cell-based; details: in vitro, unpublished results
From the text: (§2) FIG. 4A depicts plots of human fecal samples cultivated under anaerobic conditions in chemically defined medium with or without exogenous carbohydrate (n=6). Relative abundance of taxa encoding extensive glycosyl hydrolase activities. Cultures with no exogenous sugar were compared to cultures with N-acetyl-mannosamine, galactomannan and porcine gastric mucin. […] FIG. 4C depicts computer simulation identifies the uptake rates of mucin and inulin degradation products in the 2 media predicted to sustain the WT and Rnf5^−/− communities, showing higher predicted consumption of mucin and inulin products in the Rnf5^−/− community. FIG. 4D depicts YUMM1.5 tumor growth in WT or Rnf5^−/− mice provided with 0 or 3% mucin in drinking water starting 14 days prior to tumor inoculation (n=15). FIG. 4E depicts growth of Yumm1.5 tumors in WT or Rnf5^−/− received a control diet or a diet enriched 15% inulin 14 days prior to and during tumor inoculation (n=15). FIG. 4F depicts fold-changes of median abundances between Rnf5^−/−, mucin and inulin treated and WT mice, for 30 taxa that discriminate tumor attenuating and non-attenuating phenotypes.
The differences in the gut microbiota of Rnf5^−/− and WT mice before and during tumor formation highlighted a functionally coherent group of species that define a food web enriched for species encoding extensive glycosyl hydrolase activities. […]

YUMM1.5 melanoma cells = assay: YUMM1.5 melanoma tumor growth in WT or Rnf5−/− mice given mucin or inulin; format: in vivo, mouse; details: 3% mucin in drinking water or 15% inulin diet from 14 days prior to tumor inoculation
From the text: as §2
To test this directly it was investigated whether administration of mucin to WT mice could phenocopy Rnf5^−/− mice, in terms of tumor growth, immune response and gut microbiota composition. […]

Molecule: O=C(O)CCCc1ccccc1 [4-phenylbutyrate]
- tumor growth (tumor growth [1]): did not affect tumor growth

Molecule: Clostridium clostridioforme
- association of bacterial strain with tumor growth (tumor growth [2]): associated with inhibition of tumor growth

Molecule: inulin
- melanoma growth (SW1 cells; SW1 cells in Tlr4−/− C3H/HeJ mice, supplemented diet from 14 days prior to inoculation): failed to significantly attenuate melanoma growth
- CD8+ T cells and TNF-α-producing tumor-infiltrating CD4+ T cells (SW1 cells; SW1 tumors in Tlr4−/− C3H/HeJ mice): not
- tumor infiltrating immune cell phenotype ([3]; WT mice, tumor): increased tumor infiltration of immune cells
- transcription of immune-related genes ([3]; shift to that seen in Rnf5−/− mice, albeit to a lower extent): induced a shift
- infiltration of MHC-I and MHC-I on DC cells (MC-38 cells; MC-38 tumors): increase in the infiltration
- growth of MC-38 cells (MC-38 cells; WT C57BL/6 mice, supplemented diet from 14 days prior to inoculation): attenuated
- communities generated in fecal cultivation (human fecal samples): generated communities similar to that of gastric mucin
- melanoma tumor growth (YUMM1.5 melanoma cells): attenuate melanoma growth; also recorded: reduced tumor growth
- melanoma tumor growth (YUMM1.5 melanoma cells; listed as Inulin): effective inhibition of melanoma growth
